Laboratory results reported in PubChem BioAssay (NCI).
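Each compound was tested at five concentrations against cells in 96-well plates for 48 hours. GI50: concentration for 50% inhibition of growth. TGI: concentration producing complete growth inhibition.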

Tests used:
Assay in all cases: NCI-60 cell line screen, 48 h
[1] = system: IGROV1 ovarian
[2] = system: K-562 leukemia
[3] = system: HCT-15 colon
[4] = system: MDA-MB-231 breast
[5] = system: EKVX NSCLC
[6] = system: SF-539 CNS
[7] = system: 786-0 renal
[8] = system: RPMI-8226 leukemia
[9] = system: SK-MEL-5 melanoma
[10] = system: KM12 colon
[11] = system: HS 578T breast
[12] = system: HOP-92 NSCLC
[13] = system: T-47D breast
[14] = system: NCI-H23 lung
[15] = system: MDA-MB-468 breast
[16] = system: HOP-62 NSCLC
[17] = system: SNB-75 CNS
[18] = system: SK-MEL-2 melanoma
[19] = system: UACC-257 melanoma
[20] = system: HCT-116 colon
[21] = system: LOX IMVI melanoma
[22] = system: MDA-MB-435
[23] = system: UACC-62 melanoma
[24] = system: SNB-19 CNS
[25] = system: MALME-3M melanoma
[26] = system: SN12C renal
[27] = system: SK-MEL-28 melanoma
[28] = system: OVCAR-8 ovarian
[29] = system: SF-295 CNS
[30] = system: ACHN renal
[31] = system: MCF7 breast
[32] = system: COLO 205 colon
[33] = system: TK-10 renal
[34] = system: BT-549 breast
[35] = system: CCRF-CEM leukemia
[36] = system: RXF 393 renal
[37] = system: NCI-H522 lung
[38] = system: CAKI-1 renal
[39] = system: OVCAR-3 ovarian
[40] = system: UO-31 renal
[41] = system: OVCAR-5 ovarian
[42] = system: A498 renal
[43] = system: A549 NSCLC
[44] = system: SK-OV-3 ovarian
[45] = system: OVCAR-4 ovarian
[46] = system: DU-145 prostate
[47] = system: NCI-H226 lung
[48] = system: MOLT-4 leukemia
[49] = system: U251 CNS
[50] = system: HT29 colon
[51] = system: NCI-H460 lung
[52] = system: HCC-2998 colon
[53] = system: HL-60(TB) leukemia
[54] = system: SF-268 CNS
[55] = system: M14 melanoma
[56] = system: PC-3 prostate
[57] = system: SR leukemia
[58] = system: SW-620 colon

`Cc1nc(Nc2nc(C)c3ccc(OCCN4CCOCC4)cc3n2)[nH]c(=O)c1C` gave a GI50 [1] of 3.1 µM, a TGI [1] of 12.6 µM and a GI50 [2] of 3.31 µM. The TGI [2] was 27.4 µM, the GI50 [3] was 3.15 µM and the TGI [3] was 18.8 µM. The GI50 [4] was 2.45 µM, the TGI [4] was 6.05 µM and the GI50 [5] was 4.15 µM. It also gave a TGI [5] of 26.7 µM, a GI50 [6] of 2.82 µM and a TGI [6] of 8.86 µM. It also gave a GI50 [7] of 3.75 µM, a TGI [7] of 18.2 µM and a GI50 [8] of 2.79 µM. For the same compound, the TGI [8] was 8.33 µM, the GI50 [9] was 2.29 µM and the TGI [9] was 6.87 µM. It also gave a GI50 [10] of 3.14 µM, a TGI [10] of 10.8 µM and a GI50 [11] of 3.79 µM. It also gave a TGI [11] of 23.6 µM, a GI50 [12] of 2.91 µM and a TGI [12] of 9.9 µM. It also gave a GI50 [13] of 4.36 µM, a TGI [13] of 43.5 µM and a GI50 [14] of 2.53 µM. It also gave a TGI [14] of 5.91 µM, a GI50 [15] of 1.72 µM and a TGI [15] of 3.8 µM. For the same compound, the GI50 [16] was 4.59 µM, the TGI [16] was 20.4 µM and the GI50 [17] was 1.92 µM. It also gave a TGI [17] of 8.83 µM, a GI50 [18] of 2.03 µM and a TGI [18] of 5.13 µM. It also gave a GI50 [19] of 4.03 µM, a TGI [19] of 25.9 µM and a GI50 [20] of 3.09 µM. For the same compound, the TGI [20] was 12.3 µM, the GI50 [21] was 2.39 µM and the TGI [21] was 6.72 µM. It also gave a GI50 [22] of 4.28 µM, a TGI [22] of 15.8 µM and a GI50 [23] of 2.56 µM. It also gave a TGI [23] of 8.19 µM, a GI50 [24] of 4.66 µM and a TGI [24] of 24.6 µM. It also gave a GI50 [25] of 2.38 µM, a TGI [25] of 9.06 µM and a GI50 [26] of 3.46 µM. For the same compound, the TGI [26] was 19.5 µM, the GI50 [27] was 3.64 µM and the TGI [27] was 14.3 µM. For the same compound, the GI50 [28] was 4.04 µM, the TGI [28] was 17.9 µM and the GI50 [29] was 4.43 µM. For the same compound, the TGI [29] was 57.9 µM, the GI50 [30] was 3.85 µM and the TGI [30] was 19.4 µM. It also gave a GI50 [31] of 4.15 µM, a TGI [31] greater than 100 µM and a GI50 [32] of 2.25 µM. It also gave a TGI [32] of 5.58 µM, a GI50 [33] of 2.99 µM and a TGI [33] of 22.4 µM. The GI50 [34] was 3.55 µM, the TGI [34] was 12.1 µM and the GI50 [35] was 3.26 µM. The TGI [35] was 13.8 µM, the GI50 [36] was 1.95 µM and the TGI [36] was 4.47 µM. The GI50 [37] was 2.45 µM, the TGI [37] was 8.57 µM and the GI50 [38] was 3.66 µM. For the same compound, the TGI [38] was 24.2 µM, the GI50 [39] was 3.12 µM and the TGI [39] was 13.7 µM. It also gave a GI50 [40] of 2.95 µM, a TGI [40] of 15.2 µM and a GI50 [41] of 4.22 µM. The TGI [41] was 27.5 µM, the GI50 [42] was 2.16 µM and the TGI [42] was 6.52 µM. The GI50 [43] was 3.37 µM, the TGI [43] was 15.4 µM and the GI50 [44] was 4.67 µM. The TGI [44] was 24.8 µM, the GI50 [45] was 2.54 µM and the TGI [45] was 7.74 µM. It also gave a GI50 [46] of 2.94 µM, a TGI [46] of 9.03 µM and a GI50 [47] of 2.86 µM. For the same compound, the TGI [47] was 11.1 µM, the GI50 [48] was 3.05 µM and the TGI [48] was 22 µM. The GI50 [49] was 4.16 µM, the TGI [49] was 51.4 µM and the GI50 [50] was 3.01 µM. The TGI [50] was 9.94 µM, the GI50 [51] was 2.94 µM and the TGI [51] was 9.12 µM. The GI50 [52] was 3.1 µM, the TGI [52] was 5.43 µM and the GI50 [53] was 2.27 µM. The TGI [53] was 6.83 µM, the GI50 [54] was 3.58 µM and the TGI [54] was 19 µM. The GI50 [55] was 4.36 µM, the TGI [55] was 17.4 µM and the GI50 [56] was 4.04 µM. The TGI [56] was 27 µM, the GI50 [57] was 3.03 µM and the TGI [57] was 10.7 µM. For the same compound, the GI50 [58] was 3.39 µM and the TGI [58] was 20.7 µM.
